Assay results: PMC9176681, “Evaluation of a flavonoid library for inhibition of interaction of HIV-1 integrase with human LEDGF/p75 towards a structure–activity relationship” (Annals of Medicine, 2022)
Where “and” joins values, the source holds several entries; their conditions need not be identical. Equal entries are not always repeated.

Biological target: T1, IN-LEDGF/p75 interaction (Human immunodeficiency virus type 1 group M subtype B, UniProt P12497, C1427S/F1332K)
T1 construct: His6 (C); made in house; host or cells: E. coli
Test: biochemical
Assay type: binding, HIV-1
Conditions: not given
Procedure: The inhibitory activities against the IBD-IN interaction were tested using HTRF assays according to a previous study. […] “Protein MIX” was prepared by mixing His6-HIV-1 IN (final concentration of 50 nM) and GST-IBD (final concentration of 25) in the assay buffer (25 mM Tris-HCl pH 7.5, 150 mM NaCl, 1 mg/ml BSA, 0.1% NP40, 2 mM MgCl2). […] To the 8 μl “protein MIX”, 2 μl of DMSO or compound (50 µM) dissolved in DMSO was added and mixed thoroughly. The concentrations of DMSO in the assay should be no more than 4%. The plate was incubated for 30 min at 25 °C. Then 10 μl premixed antibodies were added and mixed. The assay plate was incubated in the dark for 1 h at 25 °C. DMSO instead of the compound was used as a negative control. BI224436 was used as a positive compound for inhibition of IN-LEDGF/p75 interaction. […] Data were analysed and visualised in GraphPad Prism 5.0.

Compound	IC50 [nM]
Cc1nc2ccccc2c(-c2ccc3c4c(ccnc24)CCO3)c1[C@H](OC(C)(C)C)C(=O)O [BI224436, reference compound]	18.8

Same assay, conditions: HTRF, 50 μM final concentration

Compound	inhibitory activity against IN-LEDGF/p75 interaction (in words)
Oc1cc(O)c2c(c1)O[C@H](c1cc(O)c(O)c(O)c1)[C@H](O)C2 [compound 68]	effectively blocked
COc1cc(C2CC(=O)c3c(cc(O)c(OC)c3O)O2)cc(O)c1OC (stereo not shown) [compound 50]	loss of activity
CC(C)=CCc1cc(-c2oc3cc(O)cc(O)c3c(=O)c2O)ccc1O [compound 2]	reduced
CC(C)=CCc1cc(-c2oc3cc(O)c(CC=C(C)C)c(O)c3c(=O)c2O)ccc1O [compound 1]	reduced
COc1cc(O)c(CC=C(C)C)c(O)c1C(=O)/C=C/c1ccc(O)cc1 [compound 95]	drop in protein-protein interaction disruption
COc1cc(-c2oc3cc(O)cc(O)c3c(=O)c2O)ccc1O [compound 3]	reduced
Oc1cc(O)c2c(c1)O[C@H](c1ccc(O)c(O)c1)[C@@H](O)C2 [compound 70]	effectively blocked
COc1cc(O)c2c(=O)c(OC)c(-c3ccc(O)c(OC)c3)oc2c1 [compound 14]	reduced
COc1cc(-c2oc3cc(OC)c(OC)c(O)c3c(=O)c2OC)ccc1O [compound 19]	reduced
COc1cc(O)c2c(c1)OC(c1ccc(O)cc1)CC2=O (stereo not shown) [compound 49]	loss of activity
COc1ccccc1/C=C/C(=O)c1c(OC)cc(O)c(OC)c1O [compound 93]	drop in protein-protein interaction disruption
COc1ccc(-c2oc3cc(O)cc(O)c3c(=O)c2O)cc1O [compound 12]	reduced
COc1cc(O)c(OC)c(O)c1C(=O)/C=C/c1ccccc1 [compound 89]	drop in protein-protein interaction disruption
O=c1c(-c2ccc(O)cc2)coc2cc(O)cc(O)c12 [genistein]	worst inhibitory activity
COc1cc(-c2oc3cc(O)c(OC)c(O)c3c(=O)c2OC)ccc1O [compound 17]	reduced
COc1c(O)cc2c(c1O)C(=O)CC(c1ccc(O)cc1)O2 (stereo not shown) [compound 52]	loss of activity
COc1ccc(-c2oc3cc(O)cc(O)c3c(=O)c2O)cc1 [compound 4]	reduced
CC(C)=CCc1c(O)ccc2c1O[C@@H](c1ccc(O)cc1)CC2=O [compound 64]	loss of activity
Oc1cc(O)c2c(c1)O[C@H](c1ccc(O)c(O)c1)[C@H](O)C2 [compound 71]	effectively blocked
O=c1cc(-c2ccc(O)c(O)c2)oc2cc(O)cc(O)c12 [compound 30, Luteolin]	most potent
COc1cc(O)c(C(=O)/C=C/c2ccccc2)c(O)c1OC [compound 99]	drop in protein-protein interaction disruption
COc1cc2oc(-c3ccc(O)c(O)c3)c(OC)c(=O)c2c(O)c1OC [compound 16]	effectively inhibited
O=C1c2ccc(O)cc2OC(c2cc(O)c(O)c(O)c2)C1O (stereo not shown) [compound 43]	efficiently blocked
COc1c(O)cc(O)c2c1O[C@@H](c1ccccc1O)CC2=O [compound 60]	loss of activity
O=C1c2c(O)cc(O)cc2OC(c2cc(O)c(O)c(O)c2)[C@H]1O (stereo partly shown) [compound 47]	efficiently blocked
C=C(C)C(O)Cc1c(O)cc(OC)c(C(=O)/C=C/c2ccc(O)cc2)c1O (stereo not shown) [compound 96]	drop in protein-protein interaction disruption
COc1ccc(-c2oc3cc(O)cc(O)c3c(=O)c2OC)cc1O [compound 15]	reduced
O=c1c(O)c(-c2ccc(O)c(O)c2)oc2cc(O)cc(O)c12 [compound 10]	effectively inhibited

Biological target: T2, IN (Human immunodeficiency virus type 1 group M subtype B, UniProt P12497, C1427S/F1332K)
T2 construct: His6 (C); made in house; host or cells: E. coli
Test: Biolayer interferometry (BLI) binding assay
Design: species or system HIV-1
Conditions: 30 °C, PBS with 0.01% Tween-20

Compound	Kd
O=C1c2ccc(O)cc2OC(c2cc(O)c(O)c(O)c2)C1O (stereo not shown) [dihydrorobinetin]	1400 nM
O=C1C[C@@H](c2ccc(O)cc2)Oc2cc(O)cc(O)c21 [naringenin]	1400 nM and 1900 nM
COc1cc(O)cc(O)c1C(=O)/C=C/c1ccc(O)cc1 [helichrysetin]	2700 nM
O=c1c(-c2ccc(O)cc2)coc2cc(O)cc(O)c12 [genistein]	3600 nM and 2700 nM
O=c1cc(-c2ccc(O)c(O)c2)oc2cc(O)cc(O)c12 [compound 30, Luteolin]	1300 nM
Oc1cc(O)c2c(c1)O[C@H](c1ccc(O)c(O)c1)[C@H](O)C2 [epicatechin]	1700 nM
O=c1c(O)c(-c2cc(O)c(O)c(O)c2)oc2cc(O)cc(O)c12 [myricetin]	1000 nM

Biological target: T1, IN-LEDGF/p75 interaction
Test: not given
Design: method as in PMID 24663024
Conditions: previous experiment result; read-out: IC50, inhibition of IN-LEDGF/p75 interaction, previous experiment result; cited from earlier work

Compound	IC50 [nM]
Cc1nc2ccccc2c(-c2ccc3c4c(ccnc24)CCO3)c1[C@H](OC(C)(C)C)C(=O)O [BI224436, reference compound]	11
